# Assay results reported in patent US9512114B2, “Substituted aminopyrimidine compounds and methods of use” (Calitor Sciences, LLC, priority 2013, dated 2016).
# Key:
# [1] = Compound stability in human liver microsomes; assay type: in vitro ADME; settings: pH 7.4; for CLint scaled at 5 μM: liver microsomes, in vivo CLint extrapolated from human liver microsome incubation; for half-life at 5 μM: human liver microsomes 0.5 mg protein/mL, compound 5 μM, NADPH 1.0 mM, 37° C., read-out: Human T1/2
# Procedure: (§1) The LC/MS/MS system used in the analysis consists of an Agilent 1200 Series vacuum degasser, binary pump, well-plate autosampler, thermostatted column compartment, the Agilent G6430 Triple Quadrupole Mass Spectrometer with an electrosprayionization (ESI) source. Quantitative analysis was carried out using MRM mode. The parameters for MRM transitions are in the Table A.
# (§2) An Agilent XDB-C18, 2.1×30 mm, […] column was used for the analysis. 5 μL of the samples were injected. Analysis condition: The mobile phase was 0.1% formic acid in water (A) and 0.1% formic acid in methanol (B). The flow rate was 0.4 mL/min. And the gradient of Mobile phase was in the Table B.
# (§3) Alternatively, an Agilent 6330 series LC/MS/MS spectrometer equipped with G1312A binary pumps, a G1367A autosampler and a G1314C UV detector were used in the analysis. An ESI source was used on the LC/MS/MS spectrometer. The analysis was done in positive ion mode as appropriate and the MRM transition for each analyte was optimized using standard solution. A Capcell MP-C18 100×4.6 mm I.D., […] column (Phenomenex, Torrance, Calif., USA) was used during the analysis. The mobile phase was 5 mM ammonia acetate, 0.1% MeOH in water (A): 5 mM ammonia acetate, 0.1% MeOH in acetonitrile (B) (70:30, v/v). The flow rate was 0.6 mL/min. Column was maintained at ambient temperature. 20 μL of the samples were injected.
# (§4) Human or rat liver microsomes incubations were conducted in duplicate in polypropylene tubes. The typical incubation mixtures consisted of human or rat liver microsomes (0.5 mg protein/mL), compounds of interest (5 μM) and NADPH (1.0 mM) in a total volume of 200 μL potassium phosphate buffer (PBS, 100 mM, pH 7.4). Compounds were dissolved in DMSO and diluted with PBS such that the final concentration of DMSO was 0.05%. The enzymatic reactions were commenced with the addition of protein after a 3-min preincubation and incubated in a water bath open to the air at 37° C. Reactions were terminated at various time points (0, 5, 10, 15, 30, 60 min) by adding equal volume of ice-cold acetonitrile. The samples were stored at −80° C. until LC/MS/MS assays.
# (§5) The concentrations of compounds in the incubation mixtures of human or rat liver microsomes were determined by a LC/MS/MS method. The ranges of the linearity in the concentration range were determined for each tested compounds.
# (§6) A parallel incubation was performed using denatured microsomes as the negative control, and reactions were terminated at various time points (0, 15, 60 min) after incubation at 37° C.
# (§7) Dextromethorphan (70 μM) was selected as the positive control, and reactions were terminated at various time points (0, 5, 10, 15, 30, 60 min) after incubation at 37° C. Both positive and negative control samples were included in each assay to ensure the integrity of the microsomal incubation system.
# (§8) The concentrations of compounds in human or rat liver microsome incubations were plotted as a percentage of the relevant zero time point control for each reaction. The in vivo CLint were extrapolated (ref.: Naritomi, Y.; Terashita, S.; Kimura, S.; Suzuki, A.; Kagayama, A.; and Sugiyama, Y.; Prediction of human hepatic clearance from in vivo animal experiments and in vitro metabolic studies with liver microsomes from animals and humans. Drug Metab. Dispos., 2001, 29: 1316-1324).
# PI3K (p110δ/p85α) (h) = PI3K (p110δ/p85α) (h) (Homo sapiens (Human), UniProt O00329); assay: PI3K (p110δ/p85α) (h) non-radioactive HTRF kinase assay; assay type: biochemical; settings: performed at Millipore UK Ltd
# Chain of PI3K (p110δ/p85α) (h) (O00329 whole entry): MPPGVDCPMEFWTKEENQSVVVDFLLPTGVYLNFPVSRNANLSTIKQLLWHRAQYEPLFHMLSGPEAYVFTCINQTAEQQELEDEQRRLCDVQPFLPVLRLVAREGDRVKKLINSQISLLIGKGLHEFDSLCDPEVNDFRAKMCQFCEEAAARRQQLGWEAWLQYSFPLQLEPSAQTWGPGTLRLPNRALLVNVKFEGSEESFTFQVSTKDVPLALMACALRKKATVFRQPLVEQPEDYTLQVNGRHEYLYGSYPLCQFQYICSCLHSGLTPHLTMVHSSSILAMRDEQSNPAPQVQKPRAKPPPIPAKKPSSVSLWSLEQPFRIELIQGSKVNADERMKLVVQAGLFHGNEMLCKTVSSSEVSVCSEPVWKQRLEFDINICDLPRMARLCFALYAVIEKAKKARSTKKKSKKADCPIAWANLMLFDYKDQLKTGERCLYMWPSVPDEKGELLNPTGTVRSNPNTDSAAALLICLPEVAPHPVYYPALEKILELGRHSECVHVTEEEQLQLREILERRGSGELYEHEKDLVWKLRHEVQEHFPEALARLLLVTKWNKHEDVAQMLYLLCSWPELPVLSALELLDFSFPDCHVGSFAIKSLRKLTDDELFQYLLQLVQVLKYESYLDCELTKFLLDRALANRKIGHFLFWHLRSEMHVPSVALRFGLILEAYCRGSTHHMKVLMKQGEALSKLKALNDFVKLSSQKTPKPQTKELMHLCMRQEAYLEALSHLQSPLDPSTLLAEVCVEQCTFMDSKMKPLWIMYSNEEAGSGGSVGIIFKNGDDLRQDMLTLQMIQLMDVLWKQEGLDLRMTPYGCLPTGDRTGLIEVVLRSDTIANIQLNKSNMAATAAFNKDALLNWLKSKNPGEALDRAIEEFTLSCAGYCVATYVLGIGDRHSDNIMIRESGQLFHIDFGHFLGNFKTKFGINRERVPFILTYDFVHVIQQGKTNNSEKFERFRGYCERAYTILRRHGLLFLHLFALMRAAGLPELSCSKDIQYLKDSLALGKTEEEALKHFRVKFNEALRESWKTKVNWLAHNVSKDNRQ
# Chain of PI3K (p110δ/p85α) (h) (P27986 whole entry partner): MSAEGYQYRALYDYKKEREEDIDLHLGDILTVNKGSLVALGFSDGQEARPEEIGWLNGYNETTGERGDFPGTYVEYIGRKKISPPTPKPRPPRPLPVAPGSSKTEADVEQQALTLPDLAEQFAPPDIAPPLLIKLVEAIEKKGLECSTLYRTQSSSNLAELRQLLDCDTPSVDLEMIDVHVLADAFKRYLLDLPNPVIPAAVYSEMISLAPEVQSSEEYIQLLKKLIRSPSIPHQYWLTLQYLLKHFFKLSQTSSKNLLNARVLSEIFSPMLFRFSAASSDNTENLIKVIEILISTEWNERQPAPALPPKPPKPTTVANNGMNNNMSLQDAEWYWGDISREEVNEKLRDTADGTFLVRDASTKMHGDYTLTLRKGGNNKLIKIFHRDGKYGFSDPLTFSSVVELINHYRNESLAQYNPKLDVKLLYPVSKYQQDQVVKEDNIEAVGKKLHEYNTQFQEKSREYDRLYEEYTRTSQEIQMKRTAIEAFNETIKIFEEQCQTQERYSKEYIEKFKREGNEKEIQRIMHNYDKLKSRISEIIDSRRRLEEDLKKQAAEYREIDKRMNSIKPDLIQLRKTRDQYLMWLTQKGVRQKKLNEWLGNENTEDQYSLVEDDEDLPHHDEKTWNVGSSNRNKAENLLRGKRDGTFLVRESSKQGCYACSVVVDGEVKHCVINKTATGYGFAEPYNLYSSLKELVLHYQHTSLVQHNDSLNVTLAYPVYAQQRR
# Procedure: The above assay procedure can be used to determine the IC50 for inhibition and/or the inhibition constant, Ki.
# PI3K (p110δ/p85α) (h) [Non-Radioactive Assay]
# PI3K (p110δ/p85α) (h) is incubated in assay buffer containing 10 μM phosphatidylinositol-4, 5-bisphosphate and MgATP (concentration as required). The reaction is initiated by the addition of the MgATP mix. After incubation for 30 minutes at room temperature, the reaction is stopped by the addition of stop solution containing EDTA and biotinylated phosphatidylinositol-3,4,5-trisphosphate. Finally, detection buffer is added, which contains europium-labelled anti-GST monoclonal antibody, GST-tagged GRP1 PH domain and streptavidin-allophycocyanin. The plate is then read in timeresolved fluorescence mode and the homogenous time-resolved fluorescence (HTRF) signal is determined according to the formula HTRF=10000×(Em665 nm/Em620 nm).
# The kinase assays described herein were performed at Millipore UK Ltd, Dundee Technology Park, Dundee DD2 1SW, UK.
# [2] = Pharmacokinetic profiles in rats; assay type: in vivo, rat; settings: for Cl/F / AUC(0-t) / half-life / Vd: iv dosing 1 mg/kg; for F: oral vs iv (iv 1 mg/kg; p.o. generally 5 or 10 mg/kg); for AUC(0-t) / half-life / Vd: rat, plasma; for Vd: read-out: Vss
# Procedure: The compounds disclosed herein are assessed in pharmacokinetic studies in mice, rats, dogs or monkeys. The compounds are administered as a water solution, 2% HPMC+1% TWEEN®80 in water solution, 5% DMSO+5% solutol in saline, 4% MC suspension or capsule. For the intravenous administration, the animals are generally given at 1 or 2 mg/kg dose. For the oral (p.o.) dosing, mice and rats are generally given 5 or 10 mg/kg dose, and dogs and monkeys are generally given 10 mg/kg dose. The blood samples (0.3 mL) are drawn at 0.25, 0.5, 1.0, 2.0, 3.0, 4.0, 6.0, 8.0, 12 and 24 h time points or 0.083, 0.25, 0.5, 1.0, 2.0, 4.0, 6.0, 8.0 and 24 h time points and centrifuged at 3,000 or 4000 rpm for 2 to 10 min. The plasma solutions are collected, stored at −20° C. or −70° C. until analyzed by LC/MS/MS as described above.
# [3] = Compound stability in rat liver microsomes; assay type: in vitro ADME; settings: pH 7.4; for CLint scaled at 5 μM: liver microsomes, in vivo CLint extrapolated from rat liver microsome incubation; for half-life at 5 μM: rat liver microsomes 0.5 mg protein/mL, compound 5 μM, NADPH 1.0 mM, 37° C., read-out: Rat T1/2
# Procedure: as §1, §2, §3, §4, §5, §6, §7, §8
SMILES,CLint scaled at 5 μM [1],half-life at 5 μM [1],IC50 (PI3K (p110δ/p85α) (h)),Cl/F [2],F [2],AUC(0-t) [2],half-life [2],Vd [2],CLint scaled at 5 μM [3],half-life at 5 μM [3]
"CC[C@H](Nc1ncnc(N)c1-c1nc(C)no1)c1cc2cccc(F)c2c(=O)n1C1CC1 [Ex. 1, (S)-3-(1-((6-amino-5-(3-methyl-1,2,4-oxadiazol-5-yl)pyrimidin-4-yl)amino)propyl)-2-cyclopropyl-8-fluoroisoquinolin-1(2H)-one]",243 mL/min/kg,10.2 min,5 nM,93 mL/min/kg,46.34%,178 ng·h/mL,37.8 min,3.99 L/kg,219 mL/min/kg,11.3 min
"C[C@H](Nc1ncnc(N)c1-c1nnn(C)n1)c1cc2cccc(Cl)c2c(=O)n1C1CC1 [Ex. 12, (S)-3-(1-((6-amino-5-(2-methyl-2H-tetrazol-5-yl)pyrimidin-4-yl)amino)ethyl)-8-chloro-2-cyclopropylisoquinolin-1(2H)-one]",,,12 nM,30 mL/min/kg,32.09%,555 ng·h/mL,42 min,1.42 L/kg,,
"CC[C@H](Nc1ncnc(N)c1-c1nc(C)no1)c1cc2cccc(-c3cnn(C)c3)c2c(=O)n1C1CC1 [Ex. 32, (S)-3-(1-((6-amino-5-(3-methyl-1,2,4-oxadiazol-5-yl)pyrimidin-4-yl)amino)propyl)-2-cyclopropyl-8-(1-methyl-1H-pyrazol-4-yl)isoquinolin-1(2H)-one]",23.4 mL/min/kg,74.3 min,,24.3 mL/min/kg,74.2%,688 ng·h/mL,89.4 min,2.42 L/kg,21.2 mL/min/kg,117 min
"C[C@H](Nc1ncnc(N)c1-c1nnn(C)n1)c1cc2cccc(-c3cnn(C)c3)c2c(=O)n1-c1ccccc1 [Ex. 29, (S)-3-(1-((6-amino-5-(2-methyl-2H-tetrazol-5-yl)pyrimidin-4-yl)amino)ethyl)-8-(1-methyl-1H-pyrazol-4-yl)-2-phenylisoquinolin-1(2H)-one]",19 mL/min/kg,91.5 min,,10 mL/min/kg,80.6%,1780 ng·h/mL,78 min,0.88 L/kg,38.3 mL/min/kg,64.9 min
"CC[C@H](Nc1ncnc(N)c1-c1nc(C)no1)c1cc2cccc(C)c2c(=O)n1-c1ccccc1 [Ex. 2, (S)-3-(1-((6-amino-5-(3-methyl-1,2,4-oxadiazol-5-yl)pyrimidin-4-yl)amino)propyl)-8-methyl-2-phenylisoquinolin-1(2H)-one]",840 mL/min/kg,2.07 min,2 nM,79 mL/min/kg,46.57%,215 ng·h/mL,69.6 min,4.42 L/kg,418 mL/min/kg,5.94 min
"Cc1nc(-c2c(N)ncnc2N[C@@H](C)c2cc3cccc(-c4cnn(C)c4)c3c(=O)n2C2CC2)no1 [Ex. 34, (S)-3-(1-((6-amino-5-(5-methyl-1,2,4-oxadiazol-3-yl)pyrimidin-4-yl)amino)ethyl)-2-cyclopropyl-8-(1-methyl-1H-pyrazol-4-yl)isoquinolin-1 (2H)-one]",42.4 mL/min/kg,41 min,,23.7 mL/min/kg,96.4%,678 ng·h/mL,92.4 min,2.74 L/kg,29.9 mL/min/kg,82.9 min
"CCc1noc(-c2c(N)ncnc2N[C@@H](CC)c2cc3cccc(Cl)c3c(=O)n2C2CC2)n1 [Ex. 22, (S)-3-(1-((6-amino-5-(3-ethyl-1,2,4-oxadiazol-5-yl)pyrimidin-4-yl)amino)propyl)-8-chloro-2-cyclopropylisoquinolin-1(2H)-one]",138 mL/min/kg,12.6 min,3 nM,99.8 mL/min/kg,16.23%,167 ng·h/mL,79.2 min,6.07 L/kg,259 mL/min/kg,9.58 min
"C[C@H](Nc1ncnc(N)c1-c1nnn(C)n1)c1cc2cccc(Cl)c2c(=O)n1-c1ccccc1 [Ex. 15, (S)-3-(1-((6-amino-5-(2-methyl-2H-tetrazol-5-yl)pyrimidin-4-yl)amino)ethyl)-8-chloro-2-phenylisoquinolin-1(2H)-one]",287 mL/min/kg,6.06 min,,22.7 mL/min/kg,48.92%,758 ng·h/mL,51.6 min,0.92 L/kg,99.9 mL/min/kg,24.9 min
"CC[C@H](Nc1ncnc(N)c1-c1noc(C)n1)c1cc2cccc(-c3cnn(C)c3)c2c(=O)n1C1CC1 [Ex. 31, (S)-3-(1-((6-amino-5-(5-methyl-1,2,4-oxadiazol-3-yl)pyrimidin-4-yl)amino)propyl)-2-cyclopropyl-8-(1-methyl-1H-pyrazol-4-yl)isoquinolin-1(2H)-one]",18.9 mL/min/kg,92.2 min,,17.3 mL/min/kg,139.0%,934 ng·h/mL,136 min,2.9 L/kg,26.1 mL/min/kg,95.2 min
"CC[C@H](Nc1ncnc(N)c1-c1nnc(C)o1)c1cc2cccc(Cl)c2c(=O)n1C1CC1 [Ex. 10, S)-3-(1-((6-amino-5-(5-methyl-1,3,4-oxadiazol-2-yl)pyrimidin-4-yl)aminopropyl)-8-chloro-2-cyclopropylisoquinolin-1(2H)-one]",86.9 mL/min/kg,20 min,,50 mL/min/kg,81.33%,333 ng·h/mL,86.4 min,5.35 L/kg,169 mL/min/kg,14.7 min
